According to US12054466B2, “Compounds for the treatment of clostridium difficile infection” (University of Notre Dame du Lac, priority 2016, dated 2024):
In brackets after ≈: the same amount, converted by molar mass. Entries after “also recorded” stand apart in the source; their conditions may differ. Where two headings read alike, the source gives them in different places.

Key:
[1] = test system: Bacteroides fragilis HM-709; test: MIC against common gut bacteria; assay type: cell-based; conditions: Bacteroides fragilis, HM709
C. difficile [2] = conditions: cited from earlier work
C. difficile infection = conditions: patients treated for CDI; cited from earlier work
C. difficile BAA-1812 = test: MIC, broth microdilution; assay type: cell-based; conditions: Clostridioides difficile
C. difficile ATCC43598 = test: MIC, broth microdilution; assay type: cell-based; conditions: Clostridioides difficile
Bacteroides ovatus = test: MIC against common gut bacteria; assay type: cell-based
C. difficile ATCC43255 = test: MIC, broth microdilution; assay type: cell-based; conditions: Clostridioides difficile
Veillonella sp. HM-49 = test: MIC against common gut bacteria; assay type: cell-based; conditions: Veillonella, SP.HM49
[3] = test system: C. difficile strain ATCC 43255; test: Mouse model of recurrent CDI, second study: fecal cell, spore and toxin evaluation; assay type: in vivo, mice
Procedure: C. difficile Mouse Model. […] A negative vehicle control will be included. […] This study was conducted in duplicates.
A second study was conducted with oxadiazole 2 given po at 20 or 40 mg/kg for 5 days and vancomycin administered at 50 mg/kg po for 5 days. Fecal samples were collected on days 3, 7, and 10 for C. difficile spore and toxin evaluation.

[4] = test system: C. difficile strain ATCC 43255; test: Mouse model of recurrent CDI, survival; conditions: po once a day for 5 days; oxadiazole 2 20 mg/kg/day, vancomycin 50 mg/kg/day
C. difficile BAA-1803 = test: MIC, broth microdilution; assay type: cell-based; conditions: Clostridioides difficile
C. difficile NR49318 = test: MIC, broth microdilution; assay type: cell-based; conditions: Clostridioides difficile
[5] = test system: Corynebacterium sp. HM-784; test: MIC against common gut bacteria; assay type: cell-based; conditions: Corynebacterium, SP.HM784
Procedure: Minimally-inhibitory concentrations. MICs for C. difficile strains and the common gut bacteria were determined using broth microdilution techniques as reported earlier using brucella broth supplemented with hemin and vitamin K or supplemented BHIS broth (Babakhani et al., J Antimicrob Chemother 2013, 68(3), 515). Lactobacillus MRS broth was used for lactobacillus strains. […] All incubations unless specified otherwise were carried out at 24 or 48 h at 37° C. in an anaerobic chamber (Whitley DG250 workstation, Microbiology International, Frederick, MD). Corynebacterium and lactobacillus species were incubated aerobically.

Bacteroides eggerthii = test: MIC against common gut bacteria; assay type: cell-based
Bacteroides fragilis = test: MIC against common gut bacteria; assay type: cell-based
C. difficile BAA-1801 = test: MIC, broth microdilution; assay type: cell-based; conditions: Clostridioides difficile
C. difficile BAA-1814 = test: MIC, broth microdilution; assay type: cell-based; conditions: Clostridioides difficile
[6] = test system: Fusobacterium nucleatum HM-992; test: MIC against common gut bacteria; assay type: cell-based; conditions: Fusobacterium nucleatum, HM992
Bacteroides caccae = test: MIC against common gut bacteria; assay type: cell-based
C. difficile BAA-1804 = test: MIC, broth microdilution; assay type: cell-based; conditions: Clostridioides difficile
Bacteroides vulgatus = test: MIC against common gut bacteria; assay type: cell-based; conditions: Phocaeicola vulgatus
C. difficile NR49292 = test: MIC, broth microdilution; assay type: cell-based; conditions: Clostridioides difficile
C. difficile [7] = test: MIC against C. difficile (strain not named; 14 strains overall); assay type: cell-based, Clostridium difficile
[8] = test system: Lactobacillus gasseri HM-644; test: MIC against common gut bacteria; assay type: cell-based; conditions: Lactobacillus gasseri, HM644
[9] = test system: Lactobacillus reuteri HM-102; test: MIC against common gut bacteria; assay type: cell-based; conditions: Limosilactobacillus reuteri, HM102
[10] = test system: Bifidobacterium longum HM-846; test: MIC against common gut bacteria; assay type: cell-based; conditions: Bifidobacterium longum, HM846
C. difficile NR49294 = test: MIC, broth microdilution; assay type: cell-based; conditions: Clostridioides difficile

CN[C@H](CC(C)C)C(=O)N[C@H]1C(=O)N[C@@H](CC(N)=O)C(=O)N[C@H]2C(=O)N[C@H]3C(=O)N[C@H](C(=O)N[C@H](C(=O)O)c4cc(O)cc(O)c4-c4cc3ccc4O)[C@H](O)c3ccc(c(Cl)c3)Oc3cc2cc(c3O[C@@H]2O[C@H](CO)[C@@H](O)[C@H](O)[C@H]2O[C@H]2C[C@](C)(N)[C@H](O)[C@H](C)O2)Oc2ccc(cc2Cl)[C@H]1O [vancomycin]
MIC [1]: 16 µg/mL (≈ 11 µM) | Activity against C. difficile spores (C. difficile [2]; at 8× or 80× MIC): not active | Inhibition of toxin production (C. difficile [2]; at 8×MIC): Neither vancomycin nor metronidazole inhibit toxin production | Patients with recurrence of the infection (C. difficile infection): About 25% | MIC (C. difficile BAA-1812; BAA1812, 24 h, read-out: MIC at 24 h): 0.25 µg/mL (≈ 0.173 µM) | MIC (C. difficile BAA-1812; BAA1812, 48 h, read-out: MIC at 48 h): 0.5 µg/mL (≈ 0.345 µM) | MIC (C. difficile ATCC43598; ATCC43598, 24 h, read-out: MIC at 24 h): 1 µg/mL (≈ 0.69 µM) | MIC (C. difficile ATCC43598; ATCC43598, 48 h, read-out: MIC at 48 h): 1 µg/mL (≈ 0.69 µM) | MIC (Bacteroides ovatus): 16 µg/mL (≈ 11 µM) | MIC (C. difficile ATCC43255; ATCC43255, 24 h, read-out: MIC at 24 h): 0.5 µg/mL (≈ 0.345 µM) | MIC (C. difficile ATCC43255; ATCC43255, 48 h, read-out: MIC at 48 h): 0.5 µg/mL (≈ 0.345 µM) | MIC (Veillonella sp. HM-49): > 32 µg/mL | Spores in feces ([3]; 50 mg/kg vancomycin, in words): spores were observed on day 10; also recorded: no spores were observed until day 10 | Reduction in vegetative cells in feces by day 10 ([3]; dose of compound 2 not stated): 2 log | Total cell counts in feces, reduction on day 10 compared to day 3 ([3]; vancomycin 50 mg/kg po for 5 days): 1.02 log | Toxin in feces ([3]; vancomycin group, day 10, in words): toxin was observed | Survival after 25 days [4]: 45% | MIC (C. difficile BAA-1803; BAA1803, 24 h, read-out: MIC at 24 h): 1 µg/mL (≈ 0.69 µM) | MIC (C. difficile BAA-1803; BAA1803, 48 h, read-out: MIC at 48 h): 2 µg/mL (≈ 1.38 µM) | MIC (C. difficile NR49318; NR49318, 24 h, read-out: MIC at 24 h): 0.25 µg/mL (≈ 0.173 µM) | MIC (C. difficile NR49318; NR49318, 48 h, read-out: MIC at 48 h): 0.25 µg/mL (≈ 0.173 µM) | MIC [5]: 0.25 µg/mL (≈ 0.173 µM) | MIC (Bacteroides eggerthii): 8 µg/mL (≈ 5.52 µM) | MIC (Bacteroides fragilis): 16 µg/mL (≈ 11 µM) | MIC (C. difficile BAA-1801; BAA1801, 24 h, read-out: MIC at 24 h): 0.25 µg/mL (≈ 0.173 µM) | MIC (C. difficile BAA-1801; BAA1801, 48 h, read-out: MIC at 48 h): 0.25 µg/mL (≈ 0.173 µM) | MIC (C. difficile BAA-1814; BAA1814, 24 h, read-out: MIC at 24 h): 0.5 µg/mL (≈ 0.345 µM) | MIC (C. difficile BAA-1814; BAA1814, 48 h, read-out: MIC at 48 h): 0.5 µg/mL (≈ 0.345 µM) | MIC [6]: 0.25 µg/mL (≈ 0.173 µM) | MIC (Bacteroides caccae): 32 µg/mL (≈ 22.1 µM) | MIC (C. difficile BAA-1804; BAA1804, 24 h, read-out: MIC at 24 h): 1 µg/mL (≈ 0.69 µM) | MIC (C. difficile BAA-1804; BAA1804, 48 h, read-out: MIC at 48 h): 1 µg/mL (≈ 0.69 µM) | MIC (Bacteroides vulgatus): 16 µg/mL (≈ 11 µM) | MIC (C. difficile NR49292; NR49292, 24 h, read-out: MIC at 24 h): 0.25 µg/mL (≈ 0.173 µM) | MIC (C. difficile NR49292; NR49292, 48 h, read-out: MIC at 48 h): 0.25 µg/mL (≈ 0.173 µM) | MIC range in 14 C. difficile strains (C. difficile [7]): 0.25 to 1 µg/mL | MIC [8]: 1 µg/mL (≈ 0.69 µM) | MIC [9]: > 32 µg/mL | MIC [10]: 0.25 µg/mL (≈ 0.173 µM) | MIC (C. difficile NR49294; NR49294, 24 h, read-out: MIC at 24 h): 0.25 µg/mL (≈ 0.173 µM) | MIC (C. difficile NR49294; NR49294, 48 h, read-out: MIC at 48 h): 0.25 µg/mL (≈ 0.173 µM)
